Test results: patent US20200262869A1, “PEPTIDE ANTIBIOTIC COMPLEXES AND METHODS OF USE THEREOF” (GENENTECH, INC., priority 2017, published 2020)
Converted amounts (≈) assume the structure as drawn. Like-named read-outs stand apart in the source and are kept apart here.

How the values were obtained:
[1] = system: K. pneumoniae (CDC 0106); experiment: Neutropenic lung infection model in mice; assay type: in vivo; settings: 20 h
Description: Balb/c mice (Jackson Laboratories) were rendered neutropenic by 2 intraperitoneal injections of Cytoxan (Baxter Health Care Corporation) at 150 mg/kg on Day −4 and 100 mg/kg on Day −1. On day 0, mice were infected intranasally with 40 ul log-phase grown K. pneumoniae (CDC 0106) at 1×10^6 CFU/mouse. At 2 and 11 hours post infection, G0775 was given at different doses subcutaneously. Ciprofloxacin (Claris Lifesciences Inc.) was dosed at 80 mg/kg subcutaneously once at 2 hour post infection. At 20 hours post infection, CFU was determined in the lung through serial dilutions.

[2] = system: MDR K. pneumoniae CDC 0106; experiment: MIC against MDR clinical isolate; assay type: cell-based; settings: Klebsiella pneumoniae; MDR K. pneumoniae CDC 0106; read-out: MIC
Description: (§1) Minimum Inhibitory Concentration (MIC). MICs were determined by performing two-fold serial dilutions of compound in Mueller Hinton II cation-adjusted broth to a final volume of 0.1 m1 in round-bottom 96-well assay plates (Corning Life Sciences No 3788). Each well was inoculated with 5×10^5 CFU/ml and incubated at 37° C. without agitation for 18 hours. Plates were scored by eye, and the lowest compound concentration preventing visible growth was determined to be the MIC.

[3] = system: E. coli ATCC 25922 point mutants; experiment: MIC against spontaneous G0775-resistant point mutants; assay type: cell-based
Description: as §1
(§2) 20 independent colonies from each bacterial species were scraped and used to establish an overnight culture. Bacteria were concentrated by centrifugation, and approximately 3×10^9 CFUs were spread on cation adjusted Mueller Hinton agarose (MHA) plates containing G0775 at 2- to 8-times the MIC. The MHA plates were prepared from Mueller Hinton II cation adjusted broth (BBL™ 212322) and SeaKem LE Agarose (17 g/L; Lonza) as per manufactures instructions. Resistance frequency for each strain was calculated by dividing the number of colonies formed after a 48 hour incubation at 37° C. by the initial viable cell count.

[4] = system: A. baumannii ATCC 17978; experiment: Frequency of resistance (FOR); assay type: cell-based; settings: G0775 at 8-fold the MIC; limit of detection 10^−10
Description: as §2

[5] = system: K. pneumoniae 43816; experiment: Frequency of resistance (FOR); assay type: cell-based; settings: G0775 at 8-fold the MIC; limit of detection 10^−10
Description: as §2

[6] = system: E. coli K-12 MG1655 and isogenic matched strains; experiment: MIC against E. coli K-12 MG1655 and isogenic matched strains; assay type: cell-based; settings: for MIC: Escherichia coli
Description: as §1

Cc1nc(-c2ccc(C(C)(C)C)cc2)ncc1C(=O)NC(CCN)C(=O)N(C)C1C(=O)NC(C)C(=O)NC(C(=O)NCC#N)Cc2ccc(OCCN)c(c2)-c2cc1ccc2OCCN (stereo not drawn) [G0775]
antibacterial activity in lung infection model ([1]; 2 mg/kg subcutaneously BID): bacteriostatic activity
antibacterial activity in lung infection model ([1]; 20 mg/kg subcutaneously BID): bactericidal activity
MIC [2]: 0.5 µg/mL (≈ 0.562 µM)
Fold MIC Increase ([3]; LepB mutation A297V): 4 Fold
Fold MIC Increase ([3]; LepB mutation D143Y): 8 Fold
Fold MIC Increase ([3]; LepB mutation E83K): 16 Fold
Fold MIC Increase ([3]; LepB mutation F85S): 8 Fold
Fold MIC Increase ([3]; LepB mutation L142R): 8 Fold
Fold MIC Increase ([3]; LepB mutation P88L): 16 Fold
Fold MIC Increase ([3]; LepB mutation P88Q): 4 Fold
Fold MIC Increase ([3]; LepB mutation P88R): 16 Fold
Fold MIC Increase ([3]; LepB mutation P88T): 4 Fold
Fold MIC Increase ([3]; LepB mutation V133F): 16 Fold
Fold MIC Increase ([3]; LepB mutation V149(VVGLP)): 128 Fold
Fold MIC Increase ([3]; mutation AcrB (N282Y), off-target): 4 Fold
reduction of susceptibility to G0775 by resistance mutations ([3]; resistant E. coli mutants): 4- to 16 fold
frequency of resistance (FOR) [4]: below the limit of detection
frequency of resistance (FOR) [5]: below the limit of detection
MIC ([6]; MG1655, read-out: G0775 MIC, MG 1655 - LepB High, increase LepB expression level): 1 µg/mL (≈ 1.12 µM)
MIC ([6]; MG1655, read-out: G0775 MIC, MG 1655 - LepB Low, reduced LepB expression level): 0.008 µg/mL (≈ 0.00899 µM)
MIC ([6]; MG1655, read-out: G0775 MIC, MG 1655 LptD4213 (imp), outer-membrane permeable): 0.004 µg/mL (≈ 0.00449 µM)
MIC ([6]; MG1655, read-out: G0775 MIC, MG1655 WT): 0.125 µg/mL (≈ 0.14 µM)
MIC ([6]; MG1655, read-out: G0775 MIC, MG1655 WT + 4 mM EDTA, outer-membrane permeable): 0.004 µg/mL
MIC ([6]; MG1655, read-out: G0775 MIC, MG1655 WT + 1% surfactant, lung inactivation): 0.125 µg/mL
MIC ([6]; MG1655, read-out: G0775 MIC, MG1655 WT + 50% serum, plasma protein binding): 0.125 µg/mL
MIC ([6]; MG1655, read-out: G0775 MIC, MG 1655 ΔacrB, efflux null): 0.125 µg/mL (≈ 0.14 µM)
MIC ([6]; MG1655, read-out: G0775 MIC, MG 1655 ΔompC, ΔompF, doubly porin deficient): 0.125 µg/mL (≈ 0.14 µM)
MIC ([6]; MG1655, read-out: G0775 MIC, MG 1655 ΔompC, porin deficient): 0.125 µg/mL (≈ 0.14 µM)
MIC ([6]; MG1655, read-out: G0775 MIC, MG 1655 ΔompF, porin deficient): 0.125 µg/mL (≈ 0.14 µM)
MIC ([6]; MG1655, read-out: G0775 MIC, MG 1655 ΔtolC, efflux null): 0.125 µg/mL (≈ 0.14 µM)
increase in potency relative to wild type E. coli ([6]; hyper-permeable E. coli strain (imp4213)): 30 fold
increase in MIC values ([6]; over-expression of LepB in E. coli K12 MG1655): 8 fold
decrease in MIC values ([6]; under-expression of LepB in E. coli K12 MG1655): 16 fold
